Data from ChEMBL document CHEMBL1926654, “Design and synthesis of novel β-diketo derivatives as HIV-1 integrase inhibitors” (Bioorg Med Chem, 2012).

Assays:
[1] = biological target: Human immunodeficiency virus type 1 integrase (Human immunodeficiency virus 1, UniProt Q7ZJM1); assay: Inhibition of Human immunodeficiency virus 1 integrase-mediated strand transfer activity after 1 hr
[2] = Therapeutic index, ratio of CC50 for human TZM-bl cells to EC50 for Human immunodeficiency virus 1; assay type: cell-based; settings: read-out: Ratio CC50/EC50
[3] = Cytotoxicity against human TZM-bl cells after 48 hrs by MTT assay; assay type: cell-based
[4] = test system: Human immunodeficiency virus 1; assay: Antiviral activity against Human immunodeficiency virus 1 infected in human TZM-bl cells assessed as inhibition of viral replication after 48 hrs by inverted microscopic analysis; assay type: functional, organism-based; settings: Human immunodeficiency virus 1, TZM-bl

Human immunodeficiency virus type 1 integrase, sequence (Q7ZJM1 whole entry): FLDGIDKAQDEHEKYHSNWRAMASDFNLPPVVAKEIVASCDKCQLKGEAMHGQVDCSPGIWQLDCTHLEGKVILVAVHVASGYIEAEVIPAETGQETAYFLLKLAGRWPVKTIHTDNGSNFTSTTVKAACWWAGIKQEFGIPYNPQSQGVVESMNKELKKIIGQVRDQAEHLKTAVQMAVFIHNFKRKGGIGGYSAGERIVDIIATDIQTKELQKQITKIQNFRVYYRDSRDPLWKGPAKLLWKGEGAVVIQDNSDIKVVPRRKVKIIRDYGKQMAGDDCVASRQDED

| IC50 [1] | EC50 [4] | SMILES | selectivity ratio [2] | CC50 at 48 h [3] |
| --- | --- | --- | --- | --- |
| > 59 µM |  | Cc1c(C(=O)/C=C(\O)c2ccccc2)nnn1Cc1ccc(F)cc1 |  |  |
| > 54 µM |  | COc1ccc(/C(O)=C/C(=O)c2nnn(Cc3ccc(F)cc3)c2C)cc1 |  |  |
| > 50 µM |  | COc1ccc(/C(O)=C/C(=O)c2nnn(Cc3ccc(F)cc3)c2C)cc1OC |  |  |
| > 47 µM |  | COc1cc(/C(O)=C/C(=O)c2nnn(Cc3ccc(F)cc3)c2C)cc(OC)c1OC |  |  |
| > 59 µM |  | Cc1c(C(=O)/C=C(\O)c2ccccc2)nnn1Cc1cccc(F)c1 |  |  |
| > 54 µM |  | COc1ccc(/C(O)=C/C(=O)c2nnn(Cc3cccc(F)c3)c2C)cc1 |  |  |
| > 50 µM |  | COc1ccc(/C(O)=C/C(=O)c2nnn(Cc3cccc(F)c3)c2C)cc1OC |  |  |
| > 47 µM |  | COc1cc(/C(O)=C/C(=O)c2nnn(Cc3cccc(F)c3)c2C)cc(OC)c1OC |  |  |
| > 56 µM |  | Cc1c(C(=O)/C=C(\O)c2ccc(O)cc2)nnn1Cc1ccc(F)cc1 |  |  |
| 40 µM |  | Cc1c(C(=O)/C=C(\O)c2ccc(O)c(O)c2)nnn1Cc1ccc(F)cc1 |  |  |
| 2.6 µM | 8.92 µM | Cc1c(C(=O)/C=C(\O)c2cc(O)c(O)c(O)c2)nnn1Cc1ccc(F)cc1 | 3.7 | 33.4 µM |
| > 56 µM |  | Cc1c(C(=O)/C=C(\O)c2ccc(O)cc2)nnn1Cc1cccc(F)c1 |  |  |
| 32 µM |  | Cc1c(C(=O)/C=C(\O)c2ccc(O)c(O)c2)nnn1Cc1cccc(F)c1 |  |  |
| 0.78 µM | 7.32 µM | Cc1c(C(=O)/C=C(\O)c2cc(O)c(O)c(O)c2)nnn1Cc1cccc(F)c1 | 5 | 36.6 µM |

| SMILES | IC50 [1] | EC50 [4] | selectivity ratio [2] | CC50 at 48 h [3] |
| --- | --- | --- | --- | --- |
| Cc1nnc(C(=O)NC(C)(C)c2nc(C(=O)NCc3ccc(F)cc3)c(O)c(=O)n2C)o1 |  | 0.025 µM |  | > 30 µM |
